Patent US4237311A, “2-Methyl-1-(substituted)phenyl-2-propyl esters of 2-aminopropanoic acid” (priority 1974, dated 1980)

Tests used:
male rats = assay: Drug induced arrhythmias in rats; assay type: in vivo; settings: male rats anesthetized with Nembutal, stepwise increased doses
From the text: DRUG INDUCED ARRHYTHMIAS IN RATS
Test drugs were intravenously administered to male rats anesthetized with Nembutal®. The doses were increased stepwise up to the lethal dose and the first dose which induced arrhythmia was noted.

[1] = test system: 5-HT uptake (5-hydroxytryptamine); assay: Inhibition of the uptake of 14C-5-HT (drug given i.p. in vivo, uptake in midbrain slices); parameters: species or system mice; settings: ip, 0.5 h, half an hour before killing, mouse midbrain slices, 5-HT 1×10^-7 M, 5 min incubation, read-out: Inhibition (50%) of uptake in vivo, 5-HT (ED50)
Procedure: (§1) 1. Inhibition of the uptake of carbon-14 5-HT and tritiated noradrenaline in vitro and in vivo
The method is described by Ross, Renyi and Ogren in European Journal of Pharmacology 17 (1972), 107-112. […] The drugs were administered intraperitoneally half an hour before the animals were killed and the midbrain was taken out and sliced and incubated in a mixture consisting of, per 100 mg of brain slices, 0.2 n-mole of ^14 C--5--HT, 0.2 n-mole of ^3 H--NA and 11 μmole of glucose in 2 ml of Krebs-Henseleit buffer, pH 7.4. The incubation time was 5 minutes. The radioactive amines taken up in the slices were dissolved in Soluene-350®(Packard) and the amounts were determined with the double labelling technique by liquid scintillation. The dose producing 50 percent decrease of the active uptake (ED50) was determined graphically from dose response curves. Active uptake is defined as that part of the radioactive uptake which is inhibited by a high concentration of cocaine. All doses were given at least to four animals.

[2] = test system: NA uptake (noradrenaline); assay: Inhibition of the uptake of tritiated noradrenaline (drug given i.p. in vivo, uptake in midbrain slices); parameters: species or system mice; settings: ip, 0.5 h, half an hour before killing, mouse midbrain slices, noradrenaline 1×10^-7 M, 5 min incubation, read-out: Inhibition (50%) of uptake in vivo, NA (ED50)
Procedure: as §1
The drugs were administered intraperitoneally half an hour before the animals were killed and the midbrain was taken out and sliced and incubated in a mixture consisting of, per 100 mg of brain slices, 0.2 n-mole of ^14 C--5--HT, 0.2 n-mole of ^3 H--NA and 11 μmole of glucose in 2 ml of Krebs-Henseleit buffer, pH 7.4. The incubation time was 5 minutes. The radioactive amines taken up in the slices were dissolved in Soluene-350®(Packard) and the amounts were determined with the double labelling technique by liquid scintillation. The dose producing 50 percent decrease of the active uptake (ED50) was determined graphically from dose response curves. Active uptake is defined as that part of the radioactive uptake which is inhibited by a high concentration of cocaine. All doses were given at least to four animals.

in vivo = settings: mouse, iv, mice, killing 50% within 7 days, read-out: Acute toxicity LD50
Procedure: ACUTE TOXICITY, BEHAVIOUR AND ANTICHOLINERGIC STUDY IN MICE
The compounds were given by intravenous route to 6 mice. LD50 is the dose which kills 50% of the animals within 7 days. Seizures, gait, sedation and gripstrength were recorded.

5-HTP response = 5-HTP response potentiation test; assay type: in vivo, mice; settings: for minimal effective dose: Mus musculus, ip, test drug one hour (or 4, 24 hours) before dl-5-HTP 90 mg/kg i.v., mice, read-out: Potentiation of 5-HTP, effective dose (least dose producing maximal score +3 in all animals)
From the text: 1. 5-HTP response potentiation test
Inhibition of the uptake of 5-HT potentiates the effects of administered 5-hydroxytryptophan (5-HTP) probably by increasing the amount of 5-HT at the receptor. […] The strength of the syndrome is scored from 0 to +3.

[3] = test system: noradrenaline (NA) re-uptake mechanism; settings: central nervous system; cited from earlier work
[4] = test system: 5-hydroxytryptamine (5-HT) re-uptake mechanism; settings: central nervous system; cited from earlier work
man = settings: cited from earlier work

SMILES	Arrhythmia, accumulated i.v. dose where there are signs of arrhythmia (male rats) [mg/kg]	ED50 [1] [mg/kg]	ED50 [2] [mg/kg]	LD50 at 168 h (in vivo) [mg/kg]	minimal effective dose (5-HTP response) [mg/kg]	inhibition of the re-uptake mechanism of noradrenaline (in words) [3]	inhibition of the re-uptake mechanism of 5-hydroxytryptamine (in words) [4]	anticholinergic effect and symptoms (in words) (man)	mood and psychomotor effect (in words) (man)	onset of the antidepressive effect (man; treatment with imipramine)	potentiation of dl-5-HTP by the reference drug (in words) (5-HTP response; control groups, reference)
CC(N)C(=O)OC(C)(C)Cc1ccc(Cl)cc1.Cl (centres unmarked) [GEA 654, 2-aminopropanoic acid 1-(4-chlorophenyl)-2-methyl-2-propylester hydrochloride]	63	15	> 40	70	1	–	–	–	–	–	–
CC(N)C(=O)OC(C)(C)Cc1ccc(Cl)c(Cl)c1 (centres unmarked) [GEA 699]	–	15	> 40	–	7	–	–	–	–	–	–
CC(N)C(=O)OC(C)(C)Cc1ccc(F)cc1 (centres unmarked) [GEA 822]	–	30	> 40	–	–	–	–	–	–	–	–
CC(N)C(=O)OC(C)(C)Cc1ccccc1 (centres unmarked) [GEA 916]	–	15	> 40	–	8	–	–	–	–	–	–
CC(N)C(=O)OC(C)(C)Cc1ccc(Br)cc1 (centres unmarked) [GEA 917]	–	25	> 40	–	5	–	–	–	–	–	–
CC(N)C(=O)OC(C)(C)Cc1cccc(Cl)c1 (centres unmarked) [GEA 935]	–	5	> 40	–	3	–	–	–	–	–	–
Cc1ccc(CC(C)(C)OC(=O)C(C)N)cc1 (centres unmarked) [GEA 937]	–	10	> 40	–	12	–	–	–	–	–	–
CN(C)CCCN1c2ccccc2CCc2ccccc21 [Imipramine]	8	24	6	–	15	inhibits the re-uptake mechanism of noradrenaline (NA)	inhibits the re-uptake mechanism of noradrenaline (NA) and 5-hydroxytryptamine (5-HT)	anticholinergic and causes anticholinergic symptoms such as dryness of the mouth, tremor, tachycardia and sweating	both mood elevating and psychomotor activating	about 3 weeks	constantly potentiated dl-5-HTP
